Assay results reported in article PMC12362582, “Linker Methylation as a Strategy to Enhance PROTAC Oral Bioavailability: Insights from Molecular Properties and Conformational Analysis” (Journal of Medicinal Chemistry, 2025).

Tests used:
Type in all cases: physicochemical
[1] = BRlogD chromatographic lipophilicity (XBridge Shield RP18); conditions: XBridge Shield RP18 HPLC column (130 Å, 5 µm, 5 cm × 4.6 mm); 60% ACN / 40% 20 mM ammonium acetate, pH 7
Description: (§1) Lipophilicity was assessed using three chromatographic descriptors, each simulating distinct aspects of membrane environments. BRlogD is a surrogate of the octanol/water distribution coefficient (log D oct) reflecting a general partitioning across biological membranes. Log k W ^IAM implements an Immobilized Artificial Membrane (IAM) column which provides a lipophilicity index in an environment resembling the membrane phospholipids. Finally, log k′80 PLRP-S reflects retention in a hydrophobic polymeric column environment, mimicking the nonpolar core of lipid bilayers, and acts as a surrogate for the toluene/water partition coefficient (log D tol). Lipophilicity remained within a moderate range across all systems.
(§2) All chromatographic measurements were performed using the Thermo Scientific Inc. HPLC DIONEX Ultimate 3000 connected to an RS diode array and the Chromeleon 7.2.10 software (www.thermofisher.com). 1.5 mL HPLC vials, 9 mm PP screw caps, and high-performance ergonomic single-channel variable volume pipettors from VWR Signature were used. A Eutech pH Meter 2700 was used to regulate the pH of each buffer and sample (www.fishersci.com). For all the chromatographic descriptors, the mobile phase consisted of an acetonitrile solution (ACN) and 20 mM AAB, pH 7. Moreover, 10 μL was set as the volume of injection of compound concentrations ranging from 50 to 100 μg/mL in ACN/buffer mixtures. One mL/min was chosen as the isocratic flow rate and 30 °C as the oven temperature. However, each chromatographic system (RP) had its own conditions:
BRlogD as an analog of log Poct required the use of the XBridge Shield RP18 (130 Å, 5 μm, 5 cm × 4.6 mm) column by Waters (www.waters.com). The eluent was composed of a 60% ACN and 40% 20 mM ammonium acetate buffer (v/v) mixture. The retention time was measured for the analyte and the log k′60 was calculated (capacity factor k′60 = [t R (60% ACN) – t 0]/t 0) and then converted to the corresponding BRlogD value using the equation BRlogD = 3.31x + 2.79. In addition, acetone, caffeine, ibuprofen, lidocaine, phenol, and a mixture of uracile, acetophenone, and toluene were used as gold standards.

[2] = log k'80 PLRP-S chromatographic lipophilicity; conditions: 80% ACN / 20% 20 mM ammonium acetate, pH 7.0
Description: Molecular properties have been quantified with physicochemical descriptors of ionization, lipophilicity, polarity and chameleonicity (see Methods). First, ionization of the 11 PROTACs (basic center, Figure a) was analyzed by potentiometry. However, standard pK a measurements in water were limited by solubility and precipitation issues (data not shown). Therefore, to assess the dominant species at physiological pH we adopted a chromatographic method previously published by some of us. Briefly, we monitored the trend of the capacity factor named log k′80 PLRP-S at different pHs (acid-neutral-basic). […] The most neutral feature of the considered PROTACs in in line with the main role played by the neutral species in crossing membranes.
as §1, §2
Log k′80 PLRP-S and Chamelogk, on the other hand, were measured using the PLRP-S polymeric reversed-phase column (100 Å, 5 μm, 50 × 4.6 mm) from Agilent (www.agilent.com). The assessment of log k′80 PLRP-S involved the measurement and calculation of the capacity factor of each sample at an eluent composition of 80% ACN and 20% 20 mM ammonium acetate at pH 7.0. In addition, acetone, caffeine, phenol and a mixture of uracile, acetophenone and toluene were used as gold standards. Moreover, log k′80 PLRP-S was also assessed at different pHs (2, 7 and 12) using 0.1% formate buffer, 0.1% ammonium acetate, and 10 mM triethylamine.

[3] = log kW IAM (IAM.PC.DD2 column) and derived Δlog kW IAM polarity; conditions: for log kW^IAM: IAM.PC.DD2 column, extrapolated, pH 7; for Δlog kW^IAM: log kW IAM – clog kW IAM (clog = 0.92*BRlogD – 1.03)
Description: as §1
(§3) Polarity was quantified by Δlog k W ^IAM, a descriptor obtained from the experimental log k W ^IAM and BRlogD. In addition, we also measured EPSA (Table S2), another polarity descriptor based on a supercritical fluid chromatographic (SFC) system widely used in drug discovery.
as §2
This descriptor required the use of an IAM.PC.DD2 (300 Å, 10 μm, 10 cm × 4.6 mm) column from REGIS. The organic solvent of the eluent, ACN, was modified at various percentages (from 10 to 50%, v/v) and the retention times were measured. Next, the capacity factor (log k′) values were calculated as described elsewhere and the equation represented by the five was obtained. Lastly the extrapolated value at 100% ACN (0% aqueous buffer) or log k w ^IAM was obtained. Caffeine, carbamazepine, ketoprofen, theobromine, and toluene were checked daily as gold standards. ,
This polarity descriptor was calculated using the equation Δlog k w ^IAM = log k w ^IAM – clog k w ^IAM. Clog k w ^IAM, defined as the log k w ^IAM for neutral compounds with PSA = 0, has been correlated to BRlogD by our group with the equation: clog k w ^IAM= 0.92*BRlogD – 1.03.

[4] = Chamelogk chromatographic chameleonicity (PLRP-S column); conditions: Exp. log k'100 – Ext. log k'100, PLRP-S column
Source text: (§4) Chameleonicity was monitored by Chamelogk, a recent chromatographic descriptor able to capture environment-dependent conformational changes by monitoring different mobile phase compositions on the PLRP-S column. All PROTACs behave as strong chameleons (Chamelogk > 0.6). Additionally, we calculated the EPSA-to-TPSA ratio (ETR), a recently proposed index for polarity masking. The ETR values remained consistently around 0.7 across the series, supporting the notion that conformational effects contribute uniformly to the polarity profiles of the analyzed PROTACs.
Using the PLRP-S column, we assessed the RT of each PROTAC in the data set at four different mobile phase conditions (50, 60, 70 and 100% MeCN) and calculated the capacity factor at each mobile phase composition. First, we constructed a linear trend using the first three mobile phase conditions (50, 60, and 70% MeCN) that respected a linear behavior and calculated the extrapolated value at 100% MeCN (Ext. log k′100). Chamelogk was then calculated with the following equation: Chamelogk = Exp. log k′100 – Ext. log k′100.

[5] = EPSA (supercritical fluid chromatography) and EPSA-to-TPSA ratio; conditions: for EPSA: supercritical fluid chromatographic (SFC) system, SFC-based polarity descriptor
Source text: as §3, §4

| chromatographic logD [1] | log k'80 PLRP-S [2] | log kW^IAM [3] | Δlog kW^IAM [3] | Chamelogk [4] | EPSA [5] | ETR (EPSA-to-TPSA ratio) [5] | Δlog kW^IAM ([3]; listed as A5–1) | Δlog kW^IAM ([3]; listed as A5–4) | SMILES |
| --- | --- | --- | --- | --- | --- | --- | --- | --- | --- |
| 3.29 | 0.18 | 2.21 | 0.21 | >2 | 130 A^2 | 0.68 | – | – | Cc1ncsc1-c1ccc([C@H](C[C@H](C)CN2CCC(c3ccc4c(c3)n(C3CCCC3)c3nc(=O)c5c(Br)cccc5n43)CC2)NC(=O)[C@@H]2C[C@@H](O)CN2C(=O)[C@@H](NC(=O)C2(F)CC2)C(C)(C)C)cc1 [A3-2] |
| 3.32 | 0.32 | 2.29 | 0.26 | >2 | 130 A^2 | 0.70 | – | – | Cc1ncsc1-c1ccc([C@H](C[C@@H](C)CN2CCC(c3ccc4c(c3)n(C3CCCC3)c3nc(=O)c5c(Br)cccc5n43)CC2)NC(=O)[C@@H]2C[C@@H](O)CN2C(=O)[C@@H](NC(=O)C2(F)CC2)C(C)(C)C)cc1 [A3-3] |
| 2.8 | 0.28 | 2.38 | 0.83 | >2 | 133 A^2 | 0.73 | – | – | Cc1ncsc1-c1ccc([C@H](CC[C@@H](C)CCN2CCC(c3ccc4c(c3)n(C3CCCC3)c3nc(=O)c5c(Br)cccc5n43)CC2)NC(=O)[C@@H]2C[C@@H](O)CN2C(=O)[C@@H](NC(=O)C2(F)CC2)C(C)(C)C)cc1 [A5-3] |
| 2.76 | 0.14 | 3.31 | 1.8 | >2 | 134 A^2 | 0.73 | – | > 1.5 | Cc1ncsc1-c1ccc([C@@H](CC[C@@H](C)CCN2CCC(c3ccc4c(c3)n(C3CCCC3)c3nc(=O)c5c(Br)cccc5n43)CC2)NC(=O)[C@@H]2C[C@@H](O)CN2C(=O)[C@@H](NC(=O)C2(F)CC2)C(C)(C)C)cc1 [A5-4] |
| 2.64 | 0.05 | 1.92 | 0.57 | >2 | – | 0.68 | – | – | Cc1ncsc1-c1ccc([C@H](CO[C@H](C)CN2CCC(c3ccc4c(c3)n(C3CCCC3)c3nc(=O)c5c(Br)cccc5n43)CC2)NC(=O)[C@@H]2C[C@@H](O)CN2C(=O)[C@@H](NC(=O)C2(F)CC2)C(C)(C)C)cc1 [B-2] |
| 2.58 | 0.08 | 2.06 | 0.58 | >2 | 124 A^2 | 0.68 | – | – | Cc1ncsc1-c1ccc([C@H](CO[C@@H](C)CN2CCC(c3ccc4c(c3)n(C3CCCC3)c3nc(=O)c5c(Br)cccc5n43)CC2)NC(=O)[C@@H]2C[C@@H](O)CN2C(=O)[C@@H](NC(=O)C2(F)CC2)C(C)(C)C)cc1 [B-3] |

The next lines start with the molecule.

| SMILES | chromatographic logD [1] | log k'80 PLRP-S [2] | log kW^IAM [3] | Δlog kW^IAM [3] | Chamelogk [4] | EPSA [5] | ETR (EPSA-to-TPSA ratio) [5] | Δlog kW^IAM ([3]; listed as A5–1) | Δlog kW^IAM ([3]; listed as A5–4) |
| --- | --- | --- | --- | --- | --- | --- | --- | --- | --- |
| Cc1ncsc1-c1ccc([C@H](CCCN2CCC(c3ccc4c(c3)n(C3CCCC3)c3nc(=O)c5c(Br)cccc5n43)CC2)NC(=O)[C@@H]2C[C@@H](O)CN2C(=O)[C@@H](NC(=O)C2(F)CC2)C(C)(C)C)cc1 [A3-1] | 2.29 | 0.07 | 2.01 | 0.93 | >2 | 133 A^2 | – | – | – |
| Cc1ncsc1-c1ccc([C@H](CCCCCN2CCC(c3ccc4c(c3)n(C3CCCC3)c3nc(=O)c5c(Br)cccc5n43)CC2)NC(=O)[C@@H]2C[C@@H](O)CN2C(=O)[C@@H](NC(=O)C2(F)CC2)C(C)(C)C)cc1 [A5-1] | 2.46 | 0.03 | 3.00 | 1.77 | >2 | 136 A^2 | 0.75 | > 1.5 | – |
| Cc1ncsc1-c1ccc([C@H](CC[C@H](C)CCN2CCC(c3ccc4c(c3)n(C3CCCC3)c3nc(=O)c5c(Br)cccc5n43)CC2)NC(=O)[C@@H]2C[C@@H](O)CN2C(=O)[C@@H](NC(=O)C2(F)CC2)C(C)(C)C)cc1 [A5-2] | 2.76 | 0.22 | 2.37 | 0.85 | >2 | 133 A^2 | 0.73 | – | – |
| Cc1ncsc1-c1ccc([C@H](COCCN2CCC(c3ccc4c(c3)n(C3CCCC3)c3nc(=O)c5c(Br)cccc5n43)CC2)NC(=O)[C@@H]2C[C@@H](O)CN2C(=O)[C@@H](NC(=O)C2(F)CC2)C(C)(C)C)cc1 [B-1] | 2.64 | 0.05 | 1.97 | 0.61 | >2 | 128 A^2 | 0.69 | – | – |
| Cc1ncsc1-c1ccc([C@H](COC(C)(C)CN2CCC(c3ccc4c(c3)n(C3CCCC3)c3nc(=O)c5c(Br)cccc5n43)CC2)NC(=O)[C@@H]2C[C@@H](O)CN2C(=O)[C@@H](NC(=O)C2(F)CC2)C(C)(C)C)cc1 [B-4] | 3.25 | 0.11 | 2.00 | – | >2 | 127 A^2 | 0.67 | – | – |
